Assay results as given in patent publication US8044071B2, “Method for reducing side effects of CB2 receptor agonist therapy using a combination of a selective CB2 receptor agonist and a selective CB1 receptor antagonist” (Abbott Laboratories, priority 2007, dated 2011).
Read-outs that look alike come from different tables or passages of the source.

Key:
human CB2 receptors = target: T1, human CB2 receptors (Homo sapiens, UniProt P34972); test: CB2 radioligand binding assay ([3H]CP-55,940 competition)
T1 construct: expressed in transfected cells
T1 sequence (P34972 whole entry): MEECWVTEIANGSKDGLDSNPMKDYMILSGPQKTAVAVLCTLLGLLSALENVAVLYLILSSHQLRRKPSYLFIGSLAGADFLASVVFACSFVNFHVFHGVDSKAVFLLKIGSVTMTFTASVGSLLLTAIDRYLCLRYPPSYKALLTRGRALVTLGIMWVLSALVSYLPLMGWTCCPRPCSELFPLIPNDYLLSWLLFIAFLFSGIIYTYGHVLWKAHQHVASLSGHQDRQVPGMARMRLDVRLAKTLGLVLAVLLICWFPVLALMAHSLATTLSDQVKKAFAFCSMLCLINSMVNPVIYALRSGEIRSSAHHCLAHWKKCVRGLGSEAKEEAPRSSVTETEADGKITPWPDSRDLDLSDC
Protocol: To determine the selectivity (Ki) of the compounds of the present application for CB2 receptors relative to CB1 receptors, radioligand binding assays are performed, which are described herein.
For CB2 radioligand binding assays, HEK293 cells stably expressing human CB2 receptors were grown until a confluent monolayer was formed. Briefly, the cells were harvested and homogenized in TE buffer (50 mM Tris-HCl, 1 mM MgCl2, and 1 mM EDTA) using a polytron for 2×10 second bursts in the presence of protease inhibitors, followed by centrifugation at 45,000×g for 20 minutes. The final membrane pellet was re-homogenized in storage buffer (50 mM Tris-HCl, 1 mM MgCl2, and 1 mM EDTA and 10% sucrose) and frozen at −78° C. until used. Saturation binding reactions were initiated by the addition of membrane preparation (protein concentration of 5 μg/well for human CB2) into wells of a deep well plate containing [^3H]CP-55,940 (120 Ci/mmol, a nonselective CB agonist commercially available from Tocris) in assay buffer (50 mM Tris, 2.5 mM EDTA, 5 mM MgCl2, and 0.5 mg/mL fatty acid free BSA, pH 7.4). After 90 min incubation at 30° C., binding reaction was terminated by the addition of 300 μl/well of cold assay buffer followed by rapid vacuum filtration through a UniFilter-96 GF/C filter plates (pre-soaked in 1 mg/mL BSA for 2 hours). The bound activity was counted in a TopCount using Microscint-20. […]

[1] = test system: skin incision model of postoperative pain; test: Skin incision model of postoperative pain (tactile allodynia, von Frey); assay type: in vivo; conditions: rat; for analgesia (tactile allodynia), agonist after rimonabant: 30 μmol/kg i.p. given 15 min after rimonabant 30 μmol/kg i.p.; for withdrawal threshold for the incisional paw (allodynia): 10 and 30 μmol/kg i.p., two hours after surgery
Excerpt: Adult male Sprague-Dawley rats (250-300 g body weight, Charles River Laboratories, Portage, Mich.) were used. Animal handling and experimental protocols were approved by the Institutional Animal Care and Use Committee (IACUC) at Abbott Laboratories. For all surgical procedures, animals were maintained under halothane anesthesia (4% to induce, 2% to maintain), and the incision sites were sterilized using a 10% povidone-iodine solution prior to and after surgeries.
A skin incision model of postoperative pain was produced using the procedures described in Brennan et al., 1996, Pain, 64, 493. All rats were anesthetized with isoflurane delivered via a nose cone. Right hind paw incision was performed following sterilization procedures. The plantar aspect of the […] hind paw was placed through a hole in a sterile plastic drape. A 1-cm longitudinal incision was made through the skin and fascia of the plantar aspect of the hind paw, starting 0.5 cm from the proximal edge of the heel and extending towards the toes, the plantar muscle was elevated and incised longitudinally leaving the muscle origin and insertion points intact. The skin was then closed with two mattress sutures (5-0 nylon). After surgery, animals were then allowed to recover for 2 hours, at which time tactile allodynia was assessed as described below. To evaluate the anti-nociceptive effects, animals were i.p. administered vehicle or test compound 90 minutes following skin incision and tactile allodynia was typically assessed 30 minutes after compound administration.
Tactile allodynia was measured using calibrated von Frey filaments (Stoelting, Wood Dale, Ill.) as described in Chaplan, S. R., F. W. Bach, J. W. Porgrel, J. M. Chung and T. L. Yaksh, 1994, Quantitative assessment of tactile allodynia in the rat paw, J. Neurosci. Methods, 53, 55. Rats were placed into inverted individual plastic cage (20×12.5×20 cm) on top of a suspended wire mesh grid, and acclimated to the test chambers for 20 minutes. The von Frey filaments were applied perpendicularly from underneath the cage through openings in the wire mesh floor directly to an area within 1-3 mm (immediately adjacent) of the incision, and then held in this position for approximately 8 seconds with enough force to cause a slight bend in the filament. Positive responses included an abrupt withdrawal of the hind paw from the stimulus, or flinching behavior immediately following removal of the stimulus. A 50% withdrawal threshold was determined using an up-down procedure as described in Dixon, W. J., 1980, Efficient analysis of experimental observations, Ann. Rev. Pharmacol. Toxicol., 20, 441. The effect on paw withdrawal latency of test compounds compared to vehicle control represents the ability of the test compound to reduce allodynia. An increase in the paw withdrawal latency represents an anti-allodynic effect (i.e., a decrease in pain).
Using the skin incisional model of postoperative pain, the effects of compound A, CB2 agonist (Z)—N-(5-tert-butyl-3-butylthiazol-2(3H)-ylidene)-5-chloro-2-methoxybenzamide, on allodynia was assessed two hours after surgery.
(§1) Using the skin incisional model of postoperative pain, the effects of CB2 agonist A were evaluated after the administration of vehicle or the CB1 antagonist rimonabant. This effect was compared with the administration of vehicle after the administration of vehicle or the CB1 antagonist rimonabant. A first dose, consisting of CB1 antagonist rimonabant (30 μmol/kg i.p.) or a vehicle (5% DMSO/PEG), was administered 15 minutes before a second dose, consisting of administration of CB2 agonist A (30 μmol/kg i.p.) or vehicle. Allodynia testing was conducted 30 minutes after administration of the second dose, either CB2 agonist A or vehicle.

[2] = test system: spontaneous locomotor activity; test: Measurement of locomotor activity (open field, horizontal activity); assay type: in vivo; conditions: rat; for horizontal locomotor activity, agonist after rimonabant: 30 μmol/kg i.p., rimonabant 30 μmol/kg i.p. 15 min before
Protocol: Adverse effects may also be determined by the Measurement of Locomotor Activity. Spontaneous activity is assessed in an open-field environment (42 (length)×42 (base)×40 cm (height); Piper Plastics, Libertyville, Ill.) situated inside Versamax/Digiscan monitors, each equipped with infrared sensors (AccuScan Instruments, Inc., Columbus, Ohio) in a dimly illuminated test room. Following administration of test compounds or vehicle control, rats are individually placed into the test chambers and horizontal (locomotion) activity is recorded for 30 min. A reduction in horizontal motor activity for a test compound compared to the effect of vehicle is a measure of adverse effects; the greater the reduction in activity, the greater the adverse effect. Data is analyzed by ANOVA followed by Fisher's Protected Least significant difference (PLSD) analysis as a post hoc comparison (JMP statistic database; SAS Institute, Inc., Cary, N.C.). A p<0.05 was considered significant.
These effects also indicate that the reduction in locomotor activity by CB2 agonist B results from its residual activation of the CB1 receptor.
as §1, with “the locomotor activity assay,” for “the skin incisional model of postoperative pain,”, “vehicle. Locomotor” for “vehicle. Allodynia”, “vehicle. […] CB2 agonist A administered after vehicle decreased horizontal locomotor activity by 91%.” for “vehicle.”

Row | SMILES | Ki (human CB2 receptors) [nM] | analgesia (tactile allodynia), agonist after rimonabant ([1]; tested 30 min after second dose) | analgesia (tactile allodynia), agonist after rimonabant ([1]; tested 30 min after second dose, listed as CB2 agonist A) | analgesia (tactile allodynia), agonist after vehicle ([1]; 30 μmol/kg i.p. given 15 min after vehicle, tested 30 min after second dose) | withdrawal threshold for the incisional paw (allodynia) [1] | decrease of horizontal locomotor activity, agonist after vehicle ([2]; 30 μmol/kg i.p. after vehicle, tested 30 min after second dose) [%] | horizontal locomotor activity, agonist after rimonabant [2] | horizontal locomotor activity, agonist after rimonabant ([2]; listed as CB2 agonist A) | Ki (human CB2 receptors; HEK293 membranes expressing human CB2, 0.5 nM [3H]CP-55,940, read-out: Ki for CB2 receptors) [nM] | spontaneous locomotor activity, agonist alone ([2]; 30 and 45 μmol/kg i.p., tested 30 min after administration) | spontaneous locomotor activity, agonist after rimonabant ([2]; rimonabant 30 μmol/kg i.p. 15 min before CB2 agonist B)
1 | CCCCn1cc(C(C)(C)C)s/c1=N\C(=O)c1cc(Cl)ccc1OC [compound A, (Z)—N-(5-tert-butyl-3-butylthiazol-2(3H)-ylidene)-5-chloro-2-methoxybenzamide] | 1.8 | equivalent efficacy | able to induce analgesia | able to induce analgesia | recovered | 91 | much reduced side effects | able to block said decrease |  |  | 
2 | COCCn1c(C)c(C)s/c1=N\C(=O)C1C(C)(C)C1(C)C [compound B, (Z)—N-(3-(2-methoxyethyl)-4,5-dimethylthiazol-2(3H)-ylidene)-2,2,3,3-tetramethylcyclopropanecarboxamide] |  |  |  |  | re-establishing withdrawal threshold |  |  |  | 0.6 | significantly reduces spontaneous locomotor activity | reduction in locomotor activity was eliminated
